US10688099B2, “Methods for modulating the amount of RNA transcripts” (PTC Therapeutics, Inc., priority 2013, dated 2020)

Test system: RNA isoforms in PNN 1-46 SMA type I patient-derived fibroblasts
Assay: RNA Abundance Modulation (RNA isoform abundance, iFPM, HiSeq RNA sequencing)
Format: cell-based, human
Conditions: 3 μM
Experimental: Cells from a cell line of interest are cultured in conditions sufficient to yield the number of cells capable of generating enough RNA for subsequent sequencing steps. Cells from the tested cell line are contacted with a compound described herein.
To culture said cells, they are seeded, at appropriate concentrations in a volume of media in a cell culture container and incubated for 4, 5, 6, 7, 8, 9, 10, or more hours. A concentrated solution of compound in a vehicle (e.g., DMSO) is then added in sufficient volume to result in the intended final concentration of the compound, for example 100 nM, 500 nM, 1 μM, 5 μM, 10 μM, 15 μM, 20 μM, or more. The cells may also be treated with vehicle alone, as a control. A number of replicates of each concentration or control may be made (e.g., 2 replicates). The cells are then incubated at a constant temperature appropriate for cell culture of the particular cell line (e.g., 37° C.) for 6, 12, 18, 24, 48, or more hours. After incubation, the growth medium is removed and the cells are washed with the appropriate buffer (e.g., PBS). Cells are then removed from adherence to the cell culture container by treatment with a solution containing trypsin, and the trypsin subsequently quenched with the appropriate volume of buffer (e.g., DMEM-FBS). The cells are then pelleted with gentle centrifugation (e.g., ≤90×g centrifugal force) and resuspended in a buffer to lyse the cells for extraction of RNA. The cell lysates may then be frozen (e.g., at −80° C.) or, alternately, may immediately be used in a procedure to purify the RNA (e.g. by use of the RNEASY PLUS® minikit). The RNA from cell lysates is eluted in the appropriate volume of buffer (e.g., RNEASE-FREE H2O®). The resulting purified RNA may then be sequenced (e.g., using RNASeq) or analyzed using a human exon array (e.g., by GENECHIP® human exon array) to determine changes in the RNA levels in those cells treated with compound compared to those cells treated only with DMSO. The purified RNA may also be quantified by other methods known in the art.
Using the RNA data obtained from sequencing, exon array, or other methods, a statistical analysis can reveal changes in the RNA levels of compound-treated compared with control. For example, t-test p-values may be calculated for the data obtained through sequencing and exon array methods in order to compare compound-treated cells to those treated with the DMSO control. […] Analysis of the sequencing and exon array data may then also yield predictions about the cause of the aberrant amount of an RNA transcript in the cells (e.g., perturbation of RNA splicing, RNA transcription, or RNA stability). These predictions may be further confirmed by methods known in the art. For example, RT-PCR and RT-qPCR may be used to confirm the change in amount of RNA transcripts for one or more particular transcripts of interest.
Following the methods described above in Example 1, PNN 1-46 SMA type I patient-derived fibroblasts were treated with 300 nM or 3 μM Compounds 774 and 808 in 0.5% DMSO.
700,000 cells were seeded in 10 mL of medium (DMEM plus 10% FBS) in a T-75 flask. Cells were allowed to attach for at least 4 hrs, after which 50 μL of a 200× compound solution (100% DMSO) was added to each well, and the plate was incubated at 37° C. for 24 hrs.
At the end of the incubation period, the supernatant was removed and the cells where washed with PBS. TrypLE (Invitrogen) express solution was added (e.g. 1.5 mL per one T75 flask). The flasks were incubated for 3 to 5 min at 37° C. The trypsin was then quenched, e.g., by adding 10 mL DMEM-FBS.
Next, the cells were pelleted using gentle centrifugation without exceeding 90×g centrifugal force. The supernatant was removed and the cell pellet was re-suspended in 600 μL RLT buffer (the RLT buffer was supplemented with beta-mercaptoethanol according to the RNeasy protocol manual) by pipetting up and down until the pellet was completely dissolved […]

Structure (SMILES): CCc1nc(C)cn2nc(-c3cc(=O)n4cc(C5CCN(C)CC5)cc(C)c4n3)cc12 [Compound 774]
- amp FC (x + 1) (TOMM5 CR627326): 2.36
- ave Cpd (TOMM5 CR627326): 4 iFPM
- FC (x + 1) (TOMM5 NM_001001790): 0.3953
- L2FC (x + 1) (TOMM5 NM_001001790): −1.339
- L2abs (Cpd-DMSO) (TOMM5 NM_001001790): 10.21
- abs (Cpd-DMSO) (TOMM5 NM_001001790): 1185 iFPM
- amp FC (x + 1) (TOMM5 NM_001001790): 2.53
- ave Cpd (TOMM5 NM_001001790): 774 iFPM
- FC (x + 1) (TOMM5 NM_001134484): 0.2630
- L2FC (x + 1) (TOMM5 NM_001134484): −1.927
- L2abs (Cpd-DMSO) (TOMM5 NM_001134484): 3.41
- abs (Cpd-DMSO) (TOMM5 NM_001134484): 11 iFPM
- amp FC (x + 1) (TOMM5 NM_001134484): 3.80
- ave Cpd (TOMM5 NM_001134484): 3 iFPM
- FC (x + 1) (TOMM5 NM_001134485): 0.4705
- L2FC (x + 1) (TOMM5 NM_001134485): −1.088
- L2abs (Cpd-DMSO) (TOMM5 NM_001134485): 4.88
- abs (Cpd-DMSO) (TOMM5 NM_001134485): 29 iFPM
- amp FC (x + 1) (TOMM5 NM_001134485): 2.13
- ave Cpd (TOMM5 NM_001134485): 25 iFPM
- FC (x + 1) (TRAF3 NM_003300): 0.1622
- L2FC (x + 1) (TRAF3 NM_003300): −2.624
- L2abs (Cpd-DMSO) (TRAF3 NM_003300): 8.22
- abs (Cpd-DMSO) (TRAF3 NM_003300): 298 iFPM
- amp FC (x + 1) (TRAF3 NM_003300): 6.17
- ave Cpd (TRAF3 NM_003300): 57 iFPM
- FC (x + 1) (TRAF3 NM_145725): 0.7367
- L2FC (x + 1) (TRAF3 NM_145725): −0.441
- L2abs (Cpd-DMSO) (TRAF3 NM_145725): 8.08
- abs (Cpd-DMSO) (TRAF3 NM_145725): 271 iFPM
- amp FC (x + 1) (TRAF3 NM_145725): 1.36
- ave Cpd (TRAF3 NM_145725): 757 iFPM
- FC (x + 1) (TRAF3 NM_145726): 1.0000
- L2FC (x + 1) (TRAF3 NM_145726): 0.000
- L2abs (Cpd-DMSO) (TRAF3 NM_145726): 0
- abs (Cpd-DMSO) (TRAF3 NM_145726): 0 iFPM
- amp FC (x + 1) (TRAF3 NM_145726): 1.00
- ave Cpd (TRAF3 NM_145726): 0 iFPM
- FC (x + 1) (TRAF3 NM_001199427): 1.2405
- L2FC (x + 1) (TRAF3 NM_001199427): 0.311
- L2abs (Cpd-DMSO) (TRAF3 NM_001199427): 2.15
- abs (Cpd-DMSO) (TRAF3 NM_001199427): 4 iFPM
- amp FC (x + 1) (TRAF3 NM_001199427): 1.24
- ave Cpd (TRAF3 NM_001199427): 22 iFPM
- FC (x + 1) (TRAK1 AK295848): 1.1521
- L2FC (x + 1) (TRAK1 AK295848): 0.204
- L2abs (Cpd-DMSO) (TRAK1 AK295848): 6.64
- abs (Cpd-DMSO) (TRAK1 AK295848): 100 iFPM
- amp FC (x + 1) (TRAK1 AK295848): 1.15
- ave Cpd (TRAK1 AK295848): 755 iFPM
- FC (x + 1) (TRAK1 NM_014965): 0.0190
- L2FC (x + 1) (TRAK1 NM_014965): −5.718
- L2abs (Cpd-DMSO) (TRAK1 NM_014965): 5.69
- abs (Cpd-DMSO) (TRAK1 NM_014965): 52 iFPM
- amp FC (x + 1) (TRAK1 NM_014965): 52.63
- ave Cpd (TRAK1 NM_014965): 0 iFPM
- FC (x + 1) (TRAK1 NM_001042646): 0.6949
- L2FC (x + 1) (TRAK1 NM_001042646): −0.525
- L2abs (Cpd-DMSO) (TRAK1 NM_001042646): 7.09
- abs (Cpd-DMSO) (TRAK1 NM_001042646): 136 iFPM
- amp FC (x + 1) (TRAK1 NM_001042646): 1.44
- ave Cpd (TRAK1 NM_001042646): 309 iFPM
- FC (x + 1) (TRAK1 NM_001265608): 0.8894
- L2FC (x + 1) (TRAK1 NM_001265608): −0.169
- L2abs (Cpd-DMSO) (TRAK1 NM_001265608): 6.46
- abs (Cpd-DMSO) (TRAK1 NM_001265608): 88 iFPM
- amp FC (x + 1) (TRAK1 NM_001265608): 1.12
- ave Cpd (TRAK1 NM_001265608): 705 iFPM
- FC (x + 1) (TRAK1 NM_001265610): 0.6862
- L2FC (x + 1) (TRAK1 NM_001265610): −0.543
- L2abs (Cpd-DMSO) (TRAK1 NM_001265610): 3.13
- abs (Cpd-DMSO) (TRAK1 NM_001265610): 9 iFPM
- amp FC (x + 1) (TRAK1 NM_001265610): 1.46
- ave Cpd (TRAK1 NM_001265610): 18 iFPM
- FC (x + 1) (TRAPPC12 AK094181): 1.2209
